Columns and labels:
[1] = system: brachial plexus and sciatic nerves; experiment: Fluorescence imaging time course after systemic administration; type: in vivo, mice; conditions: 2 mg/kg, 24 hours after systemic administration, all formulations
Source text: Drug release pharmacokinetics (PK) and biodistribution (BioD) studies were completed in mice systemically administered DSPE-PEG micelle, cyclodextrin or co-solvent formulated LGW01-08 for equivalent comparison, explained as follows. […] Following blood collection via cardiac puncture, fluorescence and color images were acquired of the brain, lungs, liver, stomach, intestines, pancreas, spleen, kidney, bladder, brachial plexus, and sciatic nerves (n=3 mice per time point per formulation). Additionally, brain, lung, heart, liver, and kidney tissues were collected for liquid chromatography mass spectroscopy (LCMS/MS) analysis (n=5 mice per time point per formulation). The pharmacokinetic parameters were calculated from blood uptake kinetics data by non-compartmental analysis using Phoenix 64 (Certara, Princeton, N.J.), including the area under the concentration versus time curve from 0 to ∞ (AUC0-∞), plasma volume of distribution (Vd), clearance (CL) and half-life (t1/2). Nerve specific contrast and tissue biodistribution intensities were assessed for all initial testing, PK, BioD, and PD studies using the intraoperative fluorescence imaging systems to collect images of the nerves and surrounding tissue as well as the additional tissues for biodistribution assessment. Additional unstained control animals were imaged to assess tissue autofluorescence. […]

[2] = system: brachial plexus and sciatic nerves; experiment: Formulation nerve-specificity screening after systemic administration; type: in vivo, mice; conditions: preclinical mouse models
Description: Ox4 and LGW01-08 solubilized in each formulation were screened in mice following systemic administration for nerve specificity. 200 nmol of LGW01-08 in 100 μL of the four prepared formulations were administered intravenously to n=3 mice 4 hours before nerve imaging. The four hour fluorophore to imaging window had been previously shown to provide the highest nerve to background tissue fluorescence for Oxazine 4 and several other nerve specific fluorophores. Gibbs-Strauss et al. Molecular imaging 10, 91-101 (2011); Park et al. Theranostics 4, 823-833 (2014); Barth & Gibbs. Theranostics 7, 573-593 (2017). Uninjected animals were used for all control images (n=3 mice or 12 nerve sites/formulation).
Intraoperative Fluorescence Imaging Systems. A custom-built small animal imaging system capable of real-time color and fluorescence imaging was used to acquire rodent in vivo images. The imaging system consisted of a QImaging EXi Blue monochrome camera (Surrey, British Columbia, CA) for fluorescence detection with a removable Bayer filter for collecting co-registered color and fluorescence images. […] For fluorescence excitation, the PhotoFluor II was filtered with a 620±30 nm bandpass excitation filter. Resulting fluorescence was collected with a 700±37.5 nm bandpass emission filter for image collection. […] Camera exposure times ranged from 10-2000 ms for fluorescence image collection. […]

[3] = system: brachial plexus and sciatic nerves; experiment: Dose ranging pharmacodynamics imaging studies; type: in vivo, mice; conditions: two hours post injection
Description: Following PK studies to assess the maximum nerve signal to background ratio (SBR) for LGW1-08 in each formulation (2 hours), dose response pharmacodynamic (PD) studies were completed in mice using a dose range up to the MTD: 0.1, 0.2, 0.3, 0.6, 1, 1.5, 2, 2.5, and 3 mg/kg (n=3 mice per dose per formulation).
Nerve specific contrast and tissue biodistribution intensities were assessed for all initial testing, PK, BioD, and PD studies using the intraoperative fluorescence imaging systems to collect images of the nerves and surrounding tissue as well as the additional tissues for biodistribution assessment. Additional unstained control animals were imaged to assess tissue autofluorescence.
Custom written MatLab code was used to analyze the tissue specific fluorescence where regions of interest (ROIs) were selected using the white light images. These ROIs were then analyzed on the co-registered matched fluorescence images permitting assessment of the mean tissue intensities and nerve signal to background ratios. Intensity measurements were divided by the exposure time to obtain normalized intensity per second measurements.

[4] = LGW01-08 solubility and loading in formulations (spectrophotometric quantification); type: physicochemical
Description: Based on the solubility of the nerve specific dye, liposomes sphingomyelin cholesterol (55:45), a FDA approved lipid mix was considered first for encapsulation of the agent as the lipid vesicles have both the lipid bilayer and hydrophilic core. Two common methods for preparation of liposomes are passive and pH gradient method. For passive loading method, both LGW01-08 and lipids were dissolved in a mixture of chloroform and methanol (70:30) and subjected to rotary evaporation under vacuum. […]
The next delivery platform which could increase the solubility of the nerve dye without compromising the nerve specificity was micelles. […] Commercially available (A-B-A block), PLURONIC® ethylene oxide-propylene oxide block co-polymer capable of self-assembly to form micelle was evaluated for encapsulating the nerve dye. […] The supernatant was passed through a 0.22μ filter and analyzed for nerve dye loading.
In order to achieve higher encapsulation, two more polymeric micelle platforms: Poly(ethylene glycol)(2 k)-block-poly(D,L-lactic acid) (1.8 k) (PEG-b-PLA) and Distearyl-phosphatidylethanolamine-PEG2000 (DSPE-PEG) were evaluated. […] Triplicate samples were prepared for quantification by diluting the complex 100-fold in 10% triton solution. […]
HP-β-CD complex was prepared by the solvent casting method. […] Triplicate samples were prepared for quantification by diluting the complex 100-fold in 10% triton solution. […]

[5] = Pharmacokinetics and biodistribution by LCMS/MS; type: in vivo, mice; conditions: 2 mg/kg
Description: Drug release pharmacokinetics (PK) and biodistribution (BioD) studies were completed in mice systemically administered DSPE-PEG micelle, cyclodextrin or co-solvent formulated LGW01-08 for equivalent comparison, explained as follows. Formulated LGW1-08 was injected at a 2 mg/kg dose and blood collection was completed at the time points of 0, 0.5, 1, 2, 4, 8, and 24 hours post injection (n=5 mice per time point per formulation). Following blood collection via cardiac puncture, fluorescence and color images were acquired of the brain, lungs, liver, stomach, intestines, pancreas, spleen, kidney, bladder, brachial plexus, and sciatic nerves (n=3 mice per time point per formulation). Additionally, brain, lung, heart, liver, and kidney tissues were collected for liquid chromatography mass spectroscopy (LCMS/MS) analysis (n=5 mice per time point per formulation). The pharmacokinetic parameters were calculated from blood uptake kinetics data by non-compartmental analysis using Phoenix 64 (Certara, Princeton, N.J.), including the area under the concentration versus time curve from 0 to ∞ (AUC0-∞), plasma volume of distribution (Vd), clearance (CL) and half-life (t1/2).

nerve = conditions: Park et al. Theranostics 4, 823-833 (2014); cited from earlier work
[6] = DSPE-PEG micelle and cyclodextrin formulations

Row | Molecule | nerve fluorescence signal intensities [1] | nerve specificity following systemic administration [2] | nerve SBRs across all doses tested ([3]; 0.1-3 mg/kg) | dose at which fluorescence intensity values were highest [3, 6] [mg/kg] | fluorescence intensity values at the 0.1 mg/kg dose [3, 6] | dose up to which nerve to adipose background ratios increased [3] [mg/kg] | dose up to which nerve to muscle background ratios increased [3] [mg/kg] | solubility [4] [mg/mL] | blood concentrations over time ([5]; all formulations) | LGW01-08 cleared from the tissue ([5]; by 4 hours post injection) | nerve specificity (nerve)
1 | CCNc1cc2oc3cc(=[N+](CC)CC)ccc-3nc2cc1C [LGW1-08, N-ethyl-N-(7-(ethylamino)-8-methyl-3H-phenoxazin-3-ylidene)ethanaminium] | close to baseline autofluorescence levels | high nerve specificity | No significant difference | 2.5 | decreased to autofluorescence levels | 1.5 | 0.6 | 0.25 | decreased quickly | 90-99% | 
2 | Oxazine 4 perchlorate |  |  |  |  |  |  |  |  |  |  | high nerve-specificity

— patent publication US20210236657A1, “NERVE-SPECIFIC FLUOROPHORE FORMULATIONS FOR DIRECT AND SYSTEMIC ADMINISTRATION” (OREGON HEALTH & SCIENCE UNIVERSITY, priority 2018, published 2021)
